Data published in ChEMBL document CHEMBL1152036, “Acyclic nucleoside triphosphate analogs as terminators in biocatalytic DNA replication” (Bioorg Med Chem Lett, 1997).

How the values were obtained:
[1] = system: HIV-1 reverse transcriptase (Human immunodeficiency virus 1); experiment: The compound was evaluated as substrate for DNA replicating enzyme, HIV-1 RT at a concentration of 1 mM; Not assayed
Nucleic Acid [2] = experiment: The compound was evaluated as substrate for DNA replicating enzyme, Bst DNA polymerase; No incorporation; assay type: nucleic-acid assay
Nucleic Acid [3] = experiment: The compound was evaluated as substrate for DNA replicating enzyme, rTth DNA polymerase; No incorporation; assay type: nucleic-acid assay
Nucleic Acid [4] = experiment: The compound was evaluated as substrate for DNA replicating enzyme, AmpliTaq FS DNA polymerase at a concentration of 100 uM; Termination; assay type: nucleic-acid assay
[5] = biological target: DNA polymerase I, thermostable (Thermus aquaticus) (UniProt P19821); experiment: The compound was evaluated as substrate for DNA replicating enzyme, Taq DNA polymerase at a concentration of 100 uM; Termination
Chain of DNA polymerase I, thermostable (Thermus aquaticus) (P19821 whole entry): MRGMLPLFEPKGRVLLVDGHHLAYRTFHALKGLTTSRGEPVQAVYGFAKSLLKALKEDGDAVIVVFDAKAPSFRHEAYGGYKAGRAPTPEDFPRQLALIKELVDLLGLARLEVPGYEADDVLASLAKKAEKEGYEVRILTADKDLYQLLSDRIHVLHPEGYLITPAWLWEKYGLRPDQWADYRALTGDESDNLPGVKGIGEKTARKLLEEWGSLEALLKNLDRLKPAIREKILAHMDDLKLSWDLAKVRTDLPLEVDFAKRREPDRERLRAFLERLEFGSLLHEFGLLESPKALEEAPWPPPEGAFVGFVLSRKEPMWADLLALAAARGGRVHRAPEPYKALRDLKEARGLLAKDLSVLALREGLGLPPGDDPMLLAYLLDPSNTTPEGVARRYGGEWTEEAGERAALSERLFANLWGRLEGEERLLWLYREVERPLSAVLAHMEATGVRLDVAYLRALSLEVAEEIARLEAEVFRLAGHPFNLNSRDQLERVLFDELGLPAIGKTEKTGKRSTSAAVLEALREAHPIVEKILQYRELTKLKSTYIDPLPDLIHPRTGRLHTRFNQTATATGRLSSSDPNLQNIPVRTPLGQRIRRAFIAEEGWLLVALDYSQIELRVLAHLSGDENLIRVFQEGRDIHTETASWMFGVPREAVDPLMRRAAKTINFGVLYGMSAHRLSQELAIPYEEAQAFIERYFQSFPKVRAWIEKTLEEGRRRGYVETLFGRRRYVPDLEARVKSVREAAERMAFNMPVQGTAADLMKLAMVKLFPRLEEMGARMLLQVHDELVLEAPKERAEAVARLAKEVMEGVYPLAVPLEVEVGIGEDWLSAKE

Nucleic Acid [6] = experiment: The compound was evaluated as substrate for DNA replicating enzyme, AmpliTaq FS DNA polymerase at a concentration of 1 mM; Termination; assay type: nucleic-acid assay
[7] = system: HIV-1 reverse transcriptase (Human immunodeficiency virus 1); experiment: The compound was evaluated as substrate for DNA replicating enzyme, HIV-1 RT at a concentration of 1 mM; Termination
[8] = biological target: DNA polymerase I, thermostable (Thermus aquaticus) (UniProt P19821); experiment: The compound was evaluated as substrate for DNA replicating enzyme, Taq DNA polymerase at a concentration of 1 mM; Termination
Nucleic Acid [9] = experiment: The compound was evaluated as substrate for DNA replicating enzyme, AmpliTaq DNA polymerase; No incorporation; assay type: nucleic-acid assay

Measured: Activity

CN(CCOP(=O)(O)OP(=O)(O)OP(=O)(O)O)C(=O)Cn1cnc2c(N)ncnc21
inactive: [1] No incorporation | Nucleic Acid [2] No incorporation | Nucleic Acid [3] No incorporation | Nucleic Acid [4] No incorporation | [5] No incorporation

Cc1cn(CC(=O)N(C)CCOP(=O)(O)OP(=O)(O)OP(=O)(O)O)c(=O)[nH]c1=O
inactive: Nucleic Acid [6] No incorporation | [7] No incorporation | [8] No incorporation | Nucleic Acid [9] No incorporation | Nucleic Acid [2] No incorporation | Nucleic Acid [3] No incorporation
